Results reported in patent US20190209548A1, “LINKED DIARYL COMPOUNDS WITH ANTICANCER PROPERTIES AND METHODS OF USING THE SAME” (University of Maryland, College Park, priority 2014, published 2019).
Where “and” joins values, the source holds several entries; their conditions need not be identical. Equal values may be shown once. Read-outs that look alike come from different tables or passages of the source.

Columns and labels:
MDA-MB-231 = experiment: WST-1 IC50 determination, MDA-MB-231; format: cell-based, human; conditions: 72 hours, WST-1; for IC50: read-out: Anticancer activity IC50 ± SD, MDA-MB-231
Experimental: (§1) Cell lines and culturing. The following human cell lines were purchased from ATCC (ATCC, Manassas, Va.): prostate cancer cells (PC-3), triple negative breast cancer cells (MDA-MB-231), ovarian cancer cells (OVCAR-3), normal bone marrow (NBM) and normal fibroblast cells (MCR5A). MDA-MB-231 cells were grown at 37° C. with 5% CO2 atmosphere with DMEM (Life technologies, Carlsbad, Calif.) supplemented with heat-inactivated 10% (V/V) fetal bovine serum. OVCAR-3 and PC-3 cells were grown at 37° C. with 5% CO2 atmosphere with RPMI (Life technologies, Carlsbad, Calif.) supplemented with heat-inactivated 10% (V/V) fetal bovine serum. Cell lines were grown and maintained according to ATCC recommendations.
(§2) IC50 determination. Cell lines were seeded into 96-well plates the afternoon prior to treatment. Cell seeding number was determined by growing cells in log phase growth during drug treatment. Approximately 18 hours later, compounds were semi-serially diluted in dimethyl sulfoxide (DMSO) and then growth medium, and added to cells. Plates were incubated for 72 hours prior to addition of WST-1 (Promega, Madison Wis.). Plates were read after 4 additional hours of incubation at 37° C. using a Bio-Tek Synergy HT plate reader (Bio-Tek, Winooski, Vt.). Data was analyzed, graphed and IC50s generated using GraphPad Prism Software (Graphpad, La Jolla, Calif.).
(§3) IC50 determination: For the determination of IC50 for the azolamide class, the same protocol as described previously was followed.

c-MYC = experiment: FRET melting assay, c-MYC; format: binding; conditions: dual-labeled DNA 0.2 μM, DMZ analogues 1 μM, potassium cacodylate 60 mM pH 7.2
Experimental: (§4) Fluorescence resonance energy transfer (FRET) assay to determine Tm in absence and presence of ligands. Dual-labelled DNA was diluted from stock (50 μM) to 400 nM in 60 mM potassium cacodylate buffer (pH 7.2) and then annealed by heating at 85° C. for 10 min followed by cooling to room temperature in the heating block. Compounds were diluted from stock (20 mM in DMSO) to 2 μM in 60 mM cacodylate buffer (pH 7.2). 25 μL annealed DNA was added to 96-well plate followed by 25 μL diluted compounds. The sequences of labelled oligonucleotides were as follows: F21T 21-mer (5′-FAM-GGGTTAGGGTTAGGGTTAGGG-TAMRA-3′) (SEQ ID NO:11), c-kit2 26-mer (5′-FAM-CCCGGGCGGGCGCGAGGGAGGGGAGG-TAMRA-3′) (SEQ ID NO:12), k-RAS21R 21-mer (5′-FAM-AGGGCGGTGTGGGAAGAGGGA-TAMRA-3′) (SEQ ID NO:13), c-MYC 22-mer (5′-FAM-TGAGGGTGGGTAGGGTGGGTAA-TAMRA-3′) (SEQ ID NO:14) and duplex 26-mer (5′-FAM-TATAGCTATATTTTTTTATAGCTATA-TAMRA-3′) (SEQ ID NO: 15). Measurements were made in triplicate by using a LightCycler 480 System RT-PCR machine (Roche) and average values were reported. Fluorescence readings were made with excitation at 450-495 nm and detection at 515-545 nm, taken at intervals of 1.2° C./min in the range 25° C. to 95° C.

OVCAR-3 = experiment: WST-1 IC50 determination, OVCAR-3; format: cell-based, human; conditions: 72 hours, WST-1; for IC50: read-out: Anticancer activity IC50 ± SD, OVCAR-3
Experimental: as §1, §2, §3

PC-3 = experiment: WST-1 IC50 determination, PC-3; format: cell-based, human; conditions: 72 hours, WST-1; for IC50: read-out: Anticancer activity IC50 ± SD, PC-3
Experimental: as §1, §2, §3

c-kit1 = experiment: 1H-NMR of c-kit1 with ligand; format: binding; conditions: ligand 150 μM, DNA 300 μM
Experimental: (§5) NMR measurements for DNA binding of triazene ligands. The procedure was followed as described previously. The ligand concentration was 150 μM, and that of the DNA (c-kit1 or 8 bp AT) was […]. The buffer used was 10 mM potassium phosphate (pH 7.5) containing 137 mM NaCl, 1 mM EDTA, and also contained 10% D2O. The sample was initially heated up to 95° C. for 5 min without the ligand and then cooled down to room temperature in 15 min. Subsequently, the sample was incubated at 4° C. for ˜12 h without the ligand (for G-quadruplex formation). Then, the ligand was added and incubated for 2 h before the NMR measurement (25° C.).
(§6) NMR of DNA/DNA analogue complexes. NMR of spectra (c-kit1 or 8 bp A T) in absence or presence of ligands were obtained following precedent. The sample solution containing c-kit1 (300 μM), D2O (10%, v/v), NaCl (137 mM), EDTA (1 mM) and potassium phosphate buffer (10 mM, pH 7.5) was heated up to 95° C. for 5 min, then cooled down to room temperature, and subsequently incubated for another 12 hours at 4° C. The DMZ analogue (150 μM) was then added and incubated for 2 hours at 4° C. The ^1H NMR spectra were recorded at 25° C., using NaOAc as an internal standard (NaOAc was in a sealed capillary tube that was inserted in the NMR tube). The ^1H NMR spectra was recorded on Bruker Avance III HD 800 MHz spectrometer with a CPQCI cryoprobe.

k-RAS21R = experiment: FRET melting assay, k-RAS21R; format: binding; conditions: dual-labeled DNA 0.2 μM, DMZ analogues 1 μM, potassium cacodylate 60 mM pH 7.2
Experimental: as §4

8 bp AT = experiment: 1H-NMR of duplex DNA with ligand; format: binding; conditions: ligand 150 μM, DNA 300 μM
Experimental: as §5, §6

c-kit2 = experiment: FRET melting assay, c-kit2; format: binding; conditions: dual-labeled DNA 0.2 μM, DMZ analogues 1 μM, potassium cacodylate 60 mM pH 7.2
Experimental: as §4

F21T = experiment: FRET melting assay, F21T; format: binding; conditions: dual-labeled DNA 0.2 μM, DMZ analogues 1 μM, potassium cacodylate 60 mM pH 7.2
Experimental: as §4

c-MYC Pu27 = experiment: PCR stop assay, Pu27 template; format: biochemical
Experimental: (§7) PCR Stop Assay. This assay was performed by modifying a previously published protocol.
(§8) To the PCR reaction mixture (25 μL), 1×PCR buffer (New England Biolabs), 5 μM Pu27 and Pu27rev oligomers, various concentrations of ligands (DMZ, TMPyP4, DMZ1, DMZ9 and DMZ13) were added and incubated at 4° C. for 6 h. After that, 1 mM dNTPs, 5 units of Taq DNA polymerase (New England Biolabs) were added and PCR reactions were performed in a thermocycler, with the following conditions: 94° C. for 3 min, followed by 20 repeated cycles each having 94° C. for 30 s, 58° C. for 30 s, and 72° C. for 30 s. After PCR, amplified products were analyzed on 12% polyacrylamide gel with 1×TBE and SYBR Gold stained. This assay was also performed under the same conditions with Pu27-13,14 and Pu27rev.

Pu27-13,14 = experiment: PCR stop assay, mutated control template; format: biochemical
Experimental: as §7, §8

duplex = experiment: FRET melting assay, duplex DNA; format: binding; conditions: dual-labeled DNA 0.2 μM, DMZ analogues 1 μM, potassium cacodylate 60 mM pH 7.2
Experimental: as §4

Row | SMILES | Anticancer activity IC50 ± SD, MDA-MB-231 (MDA-MB-231) | ΔTm c-MYC (c-MYC) [°C] | Anticancer activity IC50 ± SD, OVCAR-3 (OVCAR-3) | Anticancer activity IC50 ± SD, PC-3 (PC-3) | change of c-kit1 imino proton NMR spectrum (c-kit1) | ΔTm k-RAS21R (k-RAS21R) | change of duplex DNA imino proton NMR spectrum (8 bp AT) | ΔTm c-kit2 (c-kit2) [°C] | ΔTm F21T (F21T) [°C] | IC50 (MDA-MB-231) [µM] | IC50 (OVCAR-3) [µM] | IC50 (PC-3) [µM] | polymerization/extension of oligomers Pu27 and Pu27rev (c-MYC Pu27; 100 μM compound) | PCR product with non-G-quadruplex template (Pu27-13,14; 100 μM compound) | ΔTm duplex (duplex) | IC50 (OVCAR-3; Homo sapiens, OVCAR-3) [µM] | polymerization/extension of oligomers Pu27 and Pu27rev (c-MYC Pu27; 25 μM compound) | PCR product with non-G-quadruplex template (Pu27-13,14; 25 μM compound)
1 | N=C(N)c1ccc(NN=Nc2ccccc2)cc1 [DMZ1] | NE (NE means not effective. Cell viability was the same or greater than 75% of the DMSO control at 20 μM compound concentration.) | 7.87 ± 0.53 | NE (NE means not effective. Cell viability was the same or greater than 75% of the DMSO control at 20 μM compound concentration.) | NE (NE means not effective. Cell viability was the same or greater than 75% of the DMSO control at 20 μM compound concentration.) | direct binding | 5.47 ± 0.93 °C | only DMZ (but not Triazene-1) showed considerable changes | 6.40 ± 0.26 | 4.20 ± 0.00 | – | – | – | – | – | – | – | – | –
2 | N=C(N)c1ccc(N=NNc2cccc(C#Cc3ccc(F)cc3)c2)cc1 [DMZ9] | – | 8.22 ± 0.45 | – | – | changes in peak positions and shapes | 6.58 ± 1.29 °C | no change was observed | 5.67 ± 0.26 | 4.20 ± 0.00 | 5.5 ± 0.1 | 5 ± 0.1 | 5.3 ± 1.6 | completely inhibited | amplified PCR product was observed | NE (NE means not effective binding (ΔTm < 1° C.)) | – | – | –
3 | N=C(N)c1ccc(/N=N/Nc2ccccc2C#Cc2ccc(F)cc2)cc1 [DMZ13] | – | 7.15 ± 0.00 | – | – | changes in peak positions and shapes | 2.01 ± 0.00 °C | no change was observed | 5.12 ± 0.26 | 4.20 ± 0.00 | 6.2 ± 1 | 9.5 ± 2.2 | 7.4 ± 0.2 | completely inhibited | amplified PCR product was observed | NE (NE means not effective binding (ΔTm < 1° C.)) | – | – | –
4 | N=C(N)c1ccc(/N=N/Nc2ccc(C(=N)N)cc2)cc1 [DMZ, Diminazene aceturate, reference compound] | NE (NE means not effective. Cell viability was the same or greater than 75% of the DMSO control at 20 μM compound concentration.) | 12.97 ± 0.26 | – | NE (NE means not effective. Cell viability was the same or greater than 75% of the DMSO control at 20 μM compound concentration.) | direct binding | 18.3 °C and 18.27 ± 0.52 °C | considerable changes in the imino region | 11.70 ± 0.26 | 10.05 ± 0.52 | – | – | – | – | – | 6.4 °C | > 25 | showed inhibition | amplified PCR product was observed
